Experiments:
[1] = test system: recurrent GBM; assay: Delayed enhancement subtraction maps and T1-weighted MRI of patients treated with bevacizumab (Example 5); type: in vivo, human
Method: In the present example, the delayed enhancement subtraction maps of the present embodiments are used for analyzing brain MRI of subjects treated with bevacizumab.
Four patients were subjected to bevacizumab (Avastin®) treatment. High resolution T1-weighted MR images were acquired and subtraction maps were calculated from these images. Acquisition sessions were held before treatment and several times after treatment. The predetermined time interval between two subtracted images was 75 minutes. Histological analysis was performed with tissue samples obtained from the on of these patients which underwent surgery after treatment with Avastin.

[2] = test system: GBM lesion; assay: Vessel function maps of GBM patients given Bevacizumab IV after failing first line chemoradiation (Example 2, preliminary results); type: in vivo, human; details: for change of the lesion in the map: patient #1, GBM lesion of FIG. 8
Method: Two GBM patients who failed first line chemoradiation were given Bevacizumab as an IV infusion, 10 mg/kg body weight every 2 weeks (standard Bevacizumab regimen for GBM patients).
The patients were recruited before Bevacizumab treatment was initiated. They underwent the first MRI exam prior to treatment. Second and third MRI exams are performed 1 week and 1 month after the administration of the first Bevacizumab dose. Two more MRI exams are performed at 3 and 5 months post initiation of treatment.
Vessel function maps were calculated at 15 and 75 min after contrast injection. Examples of two patients with 3 GBM lesions with different presentations of response to Avastin, are shown below. The response pattern to Avastin and the physiological meaning of the observed changes in the maps, are being studied.

[3] = common adverse effects hypertension and proteinuria; thromboembolic disease and hemorrhage infrequent; cited from earlier work
[4] = patient of FIGS. 30A-F, at 3 months
[5] = patient of FIGS. 30A-F, first month after initiation of treatment
[6] = patient of FIGS. 31A-F, first 3 months
[7] = patient of FIGS. 32A-H, at 1 month
[8] = patient of FIGS. 32A-H, at 3 months, after re-irradiation
[9] = patient of FIGS. 32A-H, first week
[10] = patient #2, FIG. 12, 1 week after the first treatment

bevacizumab
enhancing lesion decreased by, of its original volume [1, 4]: about 57% | red volume decreased by [1, 4]: about 40% | blue volume increased by ([1]; patient of FIGS. 30A-F, at 3 months, suggesting progression): about 25% | blue volume [1, 5]: stable | enhancing lesion volume (on T1-Gd) decreased by [1, 5]: about 50% | red volume decreased by [1, 5]: about 50% | blue volume ([1]; patient of FIGS. 31A-F, 5 months MRI, after re-irradiation during bevacizumab treatment): decreased significantly | blue volume [1, 6]: increased significantly | edema [1, 6]: decreased | lesion volume on T1-Gd [1, 6]: stable | blue volume increased by [1, 7]: 200% | enhancing volume increased by [1, 7]: 70% | red volume decreased by [1, 7]: about 50% | blue volume increased by [1, 8]: over 500% | enhancing lesion volume increased by [1, 8]: over 500% | red volume increased by [1, 8]: over 500% | blue volume decreased by [1, 9]: 20% | enhancing lesion volume (on T1-Gd) [1, 9]: stable | red volume increased by [1, 9]: 30% | change of the lesion in the map ([2]; 1 month follow-up): minor changes | change of the lesion in the map ([2]; first week of treatment): became more prominently blue | blue component ([2]; patient #1, recurrent GBM lesion of FIG. 10, 1 month later): increase | blue component ([2]; patient #1, recurrent GBM lesion of FIG. 10, first week post treatment): decrease | blue component [2, 10]: has not decreased | edema [2, 10]: somewhat relieved | pressure on the brain [2, 10]: relieved | red component of the lesion [2, 10]: significantly decreased | blue component ([2]; patient #2, FIG. 12, 3-months follow-up, in parallel to clinical deterioration, no sign of progression on conventional MRI): continued to increase | tolerability [3]: generally well tolerated
